What is called melting point is the temperature of the solid-liquid transition.

Data set [1] deals with SMN2 minigene mRNA (SMN2-A minigene) in HEK293H cells. Nature of the data set: SMN2 minigene mRNA splicing RT-qPCR assay in cultured cells. The class given is cell-based, human. The conditions noted are these: Homo sapiens, HEK293-H; concentration increasing full length SMN2 mRNA 1.5-fold relative to vehicle-treated cells; HEK293H cells with SMN2-A minigene, 24 hours, 7-point concentration data; read-out: EC1.5x for production of full length SMN2 mRNA. The procedure, abridged:
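Read-out: minigene-specific full-length (exon 7-included) SMN2 mRNA by one-step multiplex RT-qPCR, normalized to GAPDH and divided by vehicle-treated level. Stable SMN2-A minigene HEK293H cells, 24 h compound exposure, 7 concentrations in duplicate. EC1.5× = concentration raising FL mRNA 1.5-fold.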
In general terms: In qPCR the cycle at which signal appears reflects the starting amount.

Data set [2] relates to Smn protein in SMA patient fibroblast cells (GM03813). Kind of data set: Smn protein assay in cultured cells (SMN HTRF). The class given is cell-based, human. The note with it: SMA patient fibroblast cells, 48 hours; for maximum fold (Fold) increase of Smn protein: 7-point concentration data, fold relative to vehicle control; for EC1.5x for Smn protein expression: 7-point concentration curve, SMN HTRF, concentration producing 1.5 times Smn protein vs DMSO vehicle control. The procedure, abridged:
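Read-out: HTRF 665/620 nm ratio, blank-subtracted as ΔF, then expressed as fold over DMSO vehicle. Fibroblasts from SMA patients were exposed to compounds for 48 h (7 points, 3.16-fold steps, triplicates). Values are EC1.5× and maximum fold Smn increase.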
(In general: TR-FRET usually uses a lanthanide donor and a delayed reading to cut background.)

Structures are written as SMILES.

Take `COc1ccc(-c2cc(=O)n3cc(N4CCC(N(C)C)C4)ccc3c2)cc1F` (stereo not shown) [Compound 200, 7-[3-(dimethylamino)pyrrolidin-1-yl]-2-(3-fluoro-4-methoxyphenyl)-4H-quinolizin-4-one]: the melting point lay in the range of 259 to 261 °C. Besides, the EC (1.5-fold increase) in data set [1] was in the range of 1 to 3 µM. In addition, the “maximum fold (Fold) increase of Smn protein” value (“maximum fold (Fold) increase” for short) in data set [2] was “* (A maximum fold increase of ≤1.2 is indicated by one star (*))”.
`Cc1cn2nc(-c3cc(=O)n4cc(C5=CC(C)(C)NC(C)(C)C5)ccc4n3)cc2c(C)n1` [Compound 744, 2-(4,6-dimethylpyrazolo[1,5-a]pyrazin-2-yl)-7-(2,2,6,6-tetramethyl-1,2,3,6-tetrahydropyridin-4-yl)-4H-pyrido[1,2-a]pyrimidin-4-one] yielded a melting point of 218 to 221 °C. Besides, in data set [1], the EC (1.5-fold increase) is less than 0.1 µM. Further, in data set [2], the “EC1.5x for Smn protein expression” value is “*** (an EC1.5× between >0.3 μM and ≤1 μM is indicated by three stars (***))”; the “maximum fold (Fold) increase” value is “*** (a fold increase between >1.35 and ≤1.5 is indicated by three stars (***))”.
Turning to `CCc1cc(C2CCN(C)CC2)cn2c(=O)cc(-c3ccc(OC)c(OC)c3)nc12` [Compound 434, 2-(3,4-dimethoxyphenyl)-9-ethyl-7-(1-methylpiperidin-4-yl)-4H-pyrido[1,2-a]pyrimidin-4-one], the melting point came out at 146 °C. Besides, in data set [1], the EC (1.5-fold increase) was in the range of 0.3 to 1 µM. Moreover, the “maximum fold (Fold) increase” value in data set [2] was “** (a fold increase between >1.2 and ≤1.35 is indicated by two stars (**))”.
`Cc1cn2cc(-c3cc(=O)n4cc(N5CCN6CCC[C@@H]6C5)ccc4n3)cc(Cl)c2n1` [Compound 292, 2-(8-chloro-2-methylimidazo[1,2-a]pyridin-6-yl)-7-[(8aR)-hexahydropyrrolo[1,2-a]pyrazin-2(1H)-yl]-4H-pyrido[1,2-a]pyrimidin-4-one] registered a melting point of 274 to 280 °C. Besides, the EC (1.5-fold increase) in data set [1] is less than 0.1 µM. In data set [2], the “EC1.5x for Smn protein expression” value is on record as “**** (an EC1.5x≤0.3 μM is indicated by four stars (****))”; the “maximum fold (Fold) increase” value is “**** (a fold increase between >1.5 and ≤1.65 is indicated by four stars (****))”.
`Cc1nc2ccc(-c3cc(=O)n4cc(N5CCN(C)[C@@H](C)C5)ccc4c3)cc2o1` [Compound 325, 7-[(3S)-3,4-dimethylpiperazin-1-yl]-2-(2-methyl-1,3-benzoxazol-6-yl)-4H-quinolizin-4-one] came in with a melting point of more than 300 °C. For the same compound, the EC (1.5-fold increase) in data set [1] was in the range of 0.3 to 1 µM. Besides, in data set [2], the “maximum fold (Fold) increase” value was “*** (a fold increase between >1.35 and ≤1.5 is indicated by three stars (***))”.
Compound `CCCc1nc(C)cn2nc(-c3cc(=O)n4cc(N5CCN[C@@H](C)C5)ccc4n3)cc12` [Compound 728, 7-[(3S)-3-methylpiperazin-1-yl]-2-(6-methyl-4-propylpyrazolo[1,5-a]pyrazin-2-yl)-4H-pyrido[1,2-a]pyrimidin-4-one] showed a melting point of 195 to 197 °C. Also, the EC (1.5-fold increase) in data set [1] lay within 0.1 to 0.3 µM. In data set [2], the “EC1.5x for Smn protein expression” value is “**** (an EC1.5x≤0.3 μM is indicated by four stars (****))” and the “maximum fold (Fold) increase” value is recorded as “***** (a fold increase >1.65 is indicated by five stars (*****))”.
Compound `Cc1nc2ccc(-c3cc(=O)n4cc(C5CCNCC5)ccc4n3)cc2s1` [Compound 424, 2-(2-methyl-1,3-benzothiazol-6-yl)-7-(piperidin-4-yl)-4H-pyrido[1,2-a]pyrimidin-4-one] had a melting point of 222 to 224 °C. For the same compound, the EC (1.5-fold increase) in data set [1] is less than 0.1 µM. In data set [2], the “EC1.5x for Smn protein expression” value is “**** (an EC1.5x≤0.3 μM is indicated by four stars (****))” and the “maximum fold (Fold) increase” value was “***** (a fold increase >1.65 is indicated by five stars (*****))”.
With `COc1ccc(-c2cc(=O)n3cc(N4CCC(NC(C)C)CC4)cc(C)c3n2)cc1OC` [Compound 416, 2-(3,4-dimethoxyphenyl)-9-methyl-7-[4-(propan-2-ylamino)piperidin-1-yl]-4H-pyrido[1,2-a]pyrimidin-4-one], the melting point was in the range of 178 to 183 °C. Moreover, in data set [1], the EC (1.5-fold increase) was less than 0.1 µM. Besides, in data set [2], the “EC1.5x for Smn protein expression” value was “** (an EC1.5× between >1 μM and ≤3 μM is indicated by two stars (**))”; the “maximum fold (Fold) increase” value was “*** (a fold increase between >1.35 and ≤1.5 is indicated by three stars (***))”.
Regarding `CCc1nc(C)cn2cc(-c3cc(=O)n4cc(N5CCN6CCC[C@H]6C5)ccc4n3)cc12` [Compound 782, 2-(1-ethyl-3-methylpyrrolo[1,2-a]pyrazin-7-yl)-7-[(8aS)-hexahydropyrrolo[1,2-a]pyrazin-2(1H)-yl]-4H-pyrido[1,2-a]pyrimidin-4-one], the melting point was in the range of 220 to 222 °C. The EC (1.5-fold increase) in data set [1] is less than 0.1 µM. Also, in data set [2], the “EC1.5x for Smn protein expression” value is recorded as “**** (an EC1.5x≤0.3 μM is indicated by four stars (****))” and the “maximum fold (Fold) increase” value is reported as “***** (a fold increase >1.65 is indicated by five stars (*****))”.
The compound `CNC1CCN(c2ccc3nc(-c4ccc(OC)c(F)c4)cc(=O)n3c2)CC1` [Compound 208, 2-(3-fluoro-4-methoxyphenyl)-7-[4-(methylamino)piperidin-1-yl]-4H-pyrido[1,2-a]pyrimidin-4-one] yielded a melting point of 167 to 171 °C. In addition, in data set [1], the EC (1.5-fold increase) is less than 0.1 µM. In addition, in data set [2], the “EC1.5x for Smn protein expression” value was “*** (an EC1.5× between >0.3 μM and ≤1 μM is indicated by three stars (***))”; the “maximum fold (Fold) increase” value is “*** (a fold increase between >1.35 and ≤1.5 is indicated by three stars (***))”.
Consider `COc1ccc(-c2cc(=O)n3cc(C4CCNCC4)ccc3n2)cc1F` [Compound 403, 2-(3-fluoro-4-methoxyphenyl)-7-(piperidin-4-yl)-4H-pyrido[1,2-a]pyrimidin-4-one], for which the melting point lay in the range of 122 to 125 °C. The EC (1.5-fold increase) in data set [1] is less than 0.1 µM. Further, in data set [2], the “EC1.5x for Smn protein expression” value was “** (an EC1.5× between >1 μM and ≤3 μM is indicated by two stars (**))”; the “maximum fold (Fold) increase” value is “**** (a fold increase between >1.5 and ≤1.65 is indicated by four stars (****))”.
Take `Cc1nc2ccc(-c3cc(=O)n4cc(N5CCC(N)CC5)ccc4n3)cc2s1` [Compound 381, 7-(4-aminopiperidin-1-yl)-2-(2-methyl-1,3-benzothiazol-6-yl)-4H-pyrido[1,2-a]pyrimidin-4-one]: the melting point fell in the range of 190 to 194 °C. Moreover, in data set [1], the EC (1.5-fold increase) was in the range of 0.1 to 0.3 µM. Besides, in data set [2], the “EC1.5x for Smn protein expression” value was “* (An EC1.5× for Smn protein expression between >3 μM and ≤10 μM is indicated by one star (*))”; the “maximum fold (Fold) increase” value is “*** (a fold increase between >1.35 and ≤1.5 is indicated by three stars (***))”.
For `COc1ccc(-c2cc(=O)n3cc(N4CCNCC4)ccc3n2)cc1C#N` [Compound 151, 2-methoxy-5-[4-oxo-7-(piperazin-1-yl)-4H-pyrido[1,2-a]pyrimidin-2-yl]benzonitrile], the melting point lay in the range of 191 to 197 °C. For the same compound, in data set [1], the EC (1.5-fold increase) fell in the range of 0.1 to 0.3 µM. In data set [2], the “maximum fold (Fold) increase” value is “*** (a fold increase between >1.35 and ≤1.5 is indicated by three stars (***))”.
Consider `Cc1cn2nc(-c3cc(=O)n4cc(C5CCN(C6CCC6)CC5)ccc4n3)cc2c(C)n1` [Compound 642, 7-(1-cyclobutylpiperidin-4-yl)-2-(4,6-dimethylpyrazolo[1,5-a]pyrazin-2-yl)-4H-pyrido[1,2-a]pyrimidin-4-one], for which the melting point is 189 to 191 °C. In data set [1], the EC (1.5-fold increase) was less than 0.1 µM. Moreover, in data set [2], the “EC1.5x for Smn protein expression” value is reported as “**** (an EC1.5x≤0.3 μM is indicated by four stars (****))” and the “maximum fold (Fold) increase” value was “***** (a fold increase >1.65 is indicated by five stars (*****))”.
Take `Cc1cn2cc(-c3ccc4nc(N5CCNCC5)cc(=O)n4c3)cc(F)c2n1` [Compound 268, 7-(8-fluoro-2-methylimidazo[1,2-a]pyridin-6-yl)-2-(piperazin-1-yl)-4H-pyrido[1,2-a]pyrimidin-4-one]: the melting point is 308 °C (dec.). In addition, the EC (1.5-fold increase) in data set [1] was less than 0.1 µM. Further, in data set [2], the “EC1.5x for Smn protein expression” value is recorded as “**** (an EC1.5x≤0.3 μM is indicated by four stars (****))” and the “maximum fold (Fold) increase” value was “***** (a fold increase >1.65 is indicated by five stars (*****))”.
For the compound `CCN1CCC(c2ccc3nc(-c4ccc5nn(C)cc5c4)cc(=O)n3c2)CC1` [Compound 612, 7-(1-ethylpiperidin-4-yl)-2-(2-methyl-2H-indazol-5-yl)-4H-pyrido[1,2-a]pyrimidin-4-one], the melting point fell in the range of 202 to 204 °C. Further, the EC (1.5-fold increase) in data set [1] is less than 0.1 µM. In data set [2], the “EC1.5x for Smn protein expression” value is “**** (an EC1.5x≤0.3 μM is indicated by four stars (****))” and the “maximum fold (Fold) increase” value is “***** (a fold increase >1.65 is indicated by five stars (*****))”.
With `COc1ccc(-c2cc(=O)n3cc(N4CCN(C)[C@H](C)C4)cc(C)c3n2)cc1OC` [Compound 333, 2-(3,4-dimethoxyphenyl)-7-[(3R)-3,4-dimethylpiperazin-1-yl]-9-methyl-4H-pyrido[1,2-a]pyrimidin-4-one], the melting point came out at 148 °C. Besides, the EC (1.5-fold increase) in data set [1] was in the range of 0.1 to 0.3 µM. In data set [2], the “EC1.5x for Smn protein expression” value is “** (an EC1.5× between >1 μM and ≤3 μM is indicated by two stars (**))”; the “maximum fold (Fold) increase” value was “**** (a fold increase between >1.5 and ≤1.65 is indicated by four stars (****))”.

(Values after US11753407B2, “Compounds for treating spinal muscular atrophy” (PTC Therapeutics, Inc., priority 2012, dated 2023).)
